Series [1] addresses T1, ALKBH6 (Homo sapiens, UniProt Q3KRA9).
T1 construct: His-tag; made in house
Description: FDH-coupled formaldehyde release demethylation assay. The series is classed as biochemical. As to conditions: for formaldehyde release / demethylation by ALKBH6: FDH-coupled assay, tested as substrate; for inhibition of ALKBH6-mediated demethylation: me-dNMPs as substrate. The protocol:
(§1) NMPs including 1meAMP (Jena Bioscience, NU-1029-1,) 7meGMP (Jena Bioscience, NU-1135S), 6me-AMP (Sigma, M2780) were purchased. N-methylated deoxy-NMPs were prepared by methylating chemically synthesized 30-mer oligonucleotide containing either dA, dG, dC, or dT by MMS (5%, v/v) (0.59 M) MMS (Sigma, 129925) and purified as described before ([17]). The oligonucleotides were digested with nuclease P1 (NEB) at 37 °C for 4 h to produce deoxy-NMPs. After heat inactivating the nuclease, dNMPs were purified by HPLC and used for the demethylation reaction. N-methylated NMPs were purified similarly, using RNA as the starting material. For the demethylation reaction, ALKBH6 (1 μM) and me-dNMPs (1 mM) were mixed in the dioxygenase reaction buffer and incubated at 37 °C for 30 min. Formaldehyde release was detected by FDH-coupled DNA repair assay as described before ([32], [33]). Briefly, 1 mM NAD+ and 0.01 U FDH were added to the dioxygenase reaction buffer containing methylated nucleotide and ALKBH6. NADH generated was detected by the characteristic absorption peak (340 nm) using a 96-well multimode reader (Synergy, Biotek Instrument). Formaldehyde production was quantified from the standard curve and the initial velocities were determined using various substrate concentrations. The results were plotted and analyzed using GraphPad Prism.

The subject of series [2] is MTH1. Also noted: method as in PMID 30304478. As to conditions: MTH1 substrate; cited from earlier work.
For series [3], the target named is T1, ALKBH6. Description: Demethylation assay by HPLC analysis. The series is classed as biochemical. The note with it: substrate 250 and 500 μM, 30 min. The protocol:
(§2) Following ALKBH6-mediated demethylation, NMPs and dNMPs were analyzed in an HPLC system (Shimadzu) equipped with a reversed-phase Shim-pack GIST C18 5 μm separation column (250 × 4.6 mm). For majority of the nucleotides including 1me-AMP, 1me-dAMP, 7me-dGMP, 6me-AMP, 7me-GMP, 3me-dCMP, dAMP, dCMP AMP, GMP, the column was equilibrated with mobile phase A (50 mM ammonium acetate) and mobile phase B (50 mM ammonium acetate, 50% of acetonitrile and 0.1% trifluoroacetic acid. For dGMP, different mobile phase A (50 mM ammonium acetate, 3% methanol, pH-5.0) and mobile phase B (methanol) were used. The peaks were identified based on the elution time of the standards (Fig. S9) purchased from Sigma and further analyzed using LabSolutions software (www.shimadzu.com) and analyzed by mass spectrometry.

Series [4] deals with ALKBH3. Also noted: method as in PMID 28269980. As to conditions: cited from earlier work.
The target in series [5] is T2, ALKBH6 E115 mutant (Homo sapiens, UniProt Q3KRA9, E115A).
T2 construct: His-tag; made in house
As to the kind of experiment: FDH-coupled formaldehyde release demethylation assay. The series is classed as biochemical. As to conditions: substrate 500 μM. Here is the method:
as §1

Series [6] has as its target T3, ALKBH6 Y120A (Homo sapiens, UniProt Q3KRA9, Y120A).
T3 construct: His-tag; made in house
Description: Demethylation assay by HPLC analysis. The series is classed as biochemical. As to conditions: substrate 500 μM. Here is the method: as §2

The target in series [7] is T1, ALKBH6. As to the kind of experiment: Intrinsic tryptophan fluorescence quenching (Stern-Volmer). The class given is binding. The note with it: WT ALKBH6, 2OG omitted. The protocol: (§3) All tryptophan fluorescence spectroscopy experiments were performed using a multimode plate reader (PerkinElmer). The excitation and emission wavelengths were fixed at 280 nm and 356 nm, respectively. To measure ALKBH6–ligand interactions, recombinant ALKBH6 (500 nM), and increasing concentrations of ligand (0–80 μM) were equilibrated in binding buffer (50 mM Hepes, pH 7.6, 300 mM KCl) for 1 h. For Stern–Volmer quenching analysis, the F0/F = 1 + KSV(L) formula was used, where, KSV is the Stern–Volmer constant, L is the concentration of the quencher, F0 and F represent the steady-state fluorescence intensities in the absence and presence of quencher, respectively. All the data were calculated with best-fit parameter values and 95% confidence intervals in GraphPad Prism software.

Series [8] concerns the target T4, ALKBH6 E115A (Homo sapiens, UniProt Q3KRA9, E115A).
T4 construct: His-tag; made in house
Described as above. The class given is binding. Here is the method:
as §3

In series [9] the target is T3, ALKBH6 Y120A. The description is as above. The class given is binding. The protocol: as §3
For series [10], the target named is T1, ALKBH6. Description: Thermal shift analysis (DSF, SYPRO Orange). The series is classed as binding. The note with it: from ΔTm vs ligand concentration; read-out: apparent dissociation constant. The protocol: (§4) All the experiments were performed in Eco Real-Time PCR system as described before ([55]). Purified recombinant His-tag ALKBH6 or ALKBH6-Y120A (5 μM) was incubated with varying concentrations (0–50 μM) of 7methyl-GMP in binding buffer (50 mM Hepes pH7.6, and 75 mM KCl). SYPRO Orange was added to the reaction (20 μl) and melting derivatives (-dRFU/dT) of fluorescence emission were determined by measuring the fluorescence with temperature increment of 0.1 °C from 40 °C to 100 °C. The ΔTm was calculated by subtracting Tm of ALKBH6 from Tm of ALKBH6 with 7methyl-GMP. The changes of Tm (ΔTm) were plotted against increasing concentrations of 7methyl-GMP and dissociation constant was determined by using one site specific binding formula of GraphPad Prism software.

The target of series [11] is T3, ALKBH6 Y120A. As to the kind of experiment: Thermal shift analysis (DSF, SYPRO Orange). The series is classed as binding. Here is the method:
as §4

Series [12] concerns ALKBH6. Description: ALKBH6 knockdown by shRNA, qPCR. The series is classed as cell-based, human. As to conditions: MCF7 cells, 48 h after transfection, vs Sh-control. The source says:
The GFP-tagged ALKBH6 expression plasmids were constructed by cutting the PCR-amplified WT ALKBH6 with XhoI and EcoRI, and then cloned in-frame and upstream of the sequence encoding the GFP pEGFP-N1 (Clontech). ALKBH6 shRNA constructs were generated using reported sequences (shALKBH6#1 5′ AGGAGTATTTGCTTCGACA 3′, shALKBH6#2 5′ […] 3′) and cloned into the pSilencer 2.1-U6 puro shRNA vector. All the shRNA constructs were confirmed by sequencing (Fig. S6). For negative control, pSilencer 2.1-U6 puro vector was used.
MCF7 cells were maintained in Dulbecco's modified Eagle's medium (DMEM) with 10% fetal bovine serum at 37 °C in a humidified air containing 5% CO2. Stable ALKBH6 knockdown cell line was generated by inserting the target sequence for ALKBH6 or the scramble control into the pSilencer2.puro (pSil) vector (Ambion) to form short hairpin RNAs for RNAi. For plasmid transfection in MCF7 cells, cells were suspended in DMEM without fetal bovine serum or antibiotics at a concentration of 1 × 10^7 cells/ml. A volume of 0.1 ml was transferred to a sterile electroporation cuvette (Bio-Rad Gene Pulser cuvette) and kept at room temperature for 5 min in the presence of 15 μg plasmid. Electroporation was performed using the Gene Pulser Xcell System (Bio-Rad) with 220 V/cm, 950 μF capacitance, and infinite resistance. […]
On the technique in general: In qPCR the cycle at which signal appears reflects the starting amount.

Series [13] has as its system AlkB. The note with it: AlkB substrate; cited from earlier work.
Where [14] appears, read: substrate of ALKBH6, Michaelis-Menten.

As a reminder, the Km is the substrate concentration at which the rate is half of its maximum. The kcat is the number of substrate molecules converted per active site and unit of time at saturation.

T3 sequence (Q3KRA9 whole entry Y120A): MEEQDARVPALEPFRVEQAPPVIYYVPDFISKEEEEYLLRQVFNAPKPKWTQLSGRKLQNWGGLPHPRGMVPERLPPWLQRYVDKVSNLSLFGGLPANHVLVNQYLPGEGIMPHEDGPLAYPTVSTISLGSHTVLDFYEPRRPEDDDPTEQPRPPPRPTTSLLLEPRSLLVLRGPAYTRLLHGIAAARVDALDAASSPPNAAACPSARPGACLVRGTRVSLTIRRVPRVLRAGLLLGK
T1 sequence (Q3KRA9 whole entry): as the sequence (Q3KRA9 whole entry Y120A) above, with A120Y counted along it
T2 sequence (Q3KRA9 whole entry E115A): as the sequence (Q3KRA9 whole entry Y120A) above, with E115A, A120Y counted along it
T4 sequence (Q3KRA9 whole entry E115A): as the sequence (Q3KRA9 whole entry Y120A) above, with E115A, A120Y counted along it

As to `Cn1cnc2c(ncn2[C@@H]2O[C@H](COP(=O)(O)OP(=O)(O)OP(=O)(O)O)[C@@H](O)[C@H]2O)c1=N` [1me-ATP], the “formaldehyde release / demethylation by ALKBH6” value in series [1] is on record as “comparatively less”.
For `COc1nc(N)nc2c1ncn2[C@H]1C[C@H](O)[C@@H](COP(=O)(O)OP(=O)(O)OP(=O)(O)O)O1` [O6-methyl-dGTP], in series [2], the Michaelis constant (Km) is 13.2 µM and the kcat was 8.3 s⁻¹.
`Cn1c(=N)ccn([C@H]2C[C@H](O)[C@@H](COP(=O)(O)O)O2)c1=O` [3me-dCMP]: the “formaldehyde release / demethylation by ALKBH6” value in series [1] is listed as “Formaldehyde release was observed”. Also, the “demethylation by ALKBH6 (HPLC)” value in series [3] is reported as “efficiently demethylate”.
Regarding `Cn1c(=N)cc[nH]c1=O` [3meC, N-3-methylcytosine], in series [4], the kcat result was “approximately 1.7 min^−1”.
Regarding `Cn1c[n+]([C@@H]2O[C@H](CO)[C@@H](O)[C@H]2O)c2nc(N)[nH]c(=O)c21` [7me-guanosine, reference compound], the “formaldehyde release / demethylation by ALKBH6” value in series [1] is recorded as “could not demethylate”.
For `C[n+]1cn([C@@H]2O[C@H](COP(=O)(O)O)[C@@H](O)[C@H]2O)c2nc(N)[nH]c(=O)c21` [7me-GMP, N-7-methyl-GMP], in series [1], the “formaldehyde release / demethylation by ALKBH6” value is “Formaldehyde release was observed”. In addition, in series [5], the “demethylation activity over time” value is given as “comparable to WT ALKBH6”. In addition, the “demethylation by ALKBH6 (HPLC)” value in series [3] is given as “converted”. For the same molecule, in series [6], the “demethylation (HPLC end product)” value is “little demethylation”. In addition, the “Stern-Volmer constant (Ksv)” value in series [7] was 0.036 ± 0.009 µM⁻¹; in series [8], 0.035 ± 0.008 µM⁻¹; in series [9] it was “negative”. Besides, in series [10], the Kd worked out at 620 nM. Besides, in [11], the ΔTm shift entry is given as “no significant ΔTm shift”.
As to “Sh #1: shRNA to ALKBH6, 5′ AGGAGTATTTGCTTCGACA 3′ in pSilencer 2.1-U6 puro vector (shRNA in pSilencer vector; only target-sense given)”, in series [12], the “reduction of ALKBH6 expression (knockdown)” value is 75%.
With `Cn1c[n+]([C@@H]2O[C@H](COP(=O)([O-])OP(=O)(O)OP(=O)(O)O)[C@@H](O)[C@H]2O)c2nc(N)[nH]c(=O)c21` [7me-GTP], the “formaldehyde release / demethylation by ALKBH6” value in series [1] is on record as “comparatively less”. Also, the “Stern-Volmer constant (Ksv)” value in series [7] came out at 0.007 µM⁻¹.
For `COc1nc(N)nc2c1ncn2[C@@H]1O[C@H](COP(=O)(O)OP(=O)(O)OP(=O)(O)O)[C@@H](O)[C@H]1O` [O^6-methyl-GTP], the kcat in series [2] is 0.3 s⁻¹.
As to “Sh #2: shRNA to ALKBH6, 5′ GCACCACCTGTAATCTACTAT 3′ in pSilencer 2.1-U6 puro vector (shRNA in pSilencer vector; only target-sense given)”, the “reduction of ALKBH6 expression (knockdown)” value in series [12] is reported as “more than 90%”.
`Cn1c(N)nc2c(ncn2[C@@H]2O[C@H](COP(=O)(O)OP(=O)(O)OP(=O)(O)O)[C@@H](O)[C@H]2O)c1=O` [1me-GTP]: the “Stern-Volmer constant (Ksv)” value in series [7] was determined as 0.004 µM⁻¹.
Regarding `C[n+]1cnc2c(ncn2[C@@H]2O[C@H](COP(=O)(O)O)[C@@H](O)[C@H]2O)c1N` [1me-AMP, N-1-methyl-adenosine monophosphate], the “demethylation by ALKBH6 (HPLC)” value in [3] is “converted to AMP”. Besides, the “Stern-Volmer constant (Ksv)” value in [7] was found to be 0.011 ± 0.002 µM⁻¹.
As to `O=C(O)CCC(=O)O` [succinate, reference compound], in [1], the “inhibition of ALKBH6-mediated demethylation” value is reported as “inhibited”.
Still for that read-out and setting: the entry for `O=C(O)CCC(O)C(=O)O` (stereo not shown) [2HG, 2-hydroxyglutarate, reference compound] is “inhibited”.
As to `Cn1cnc2c(ncn2[C@@H]2O[C@H](CO)[C@@H](O)[C@H]2O)c1=N` [1me-adenosine, reference compound], the “formaldehyde release / demethylation by ALKBH6” value in series [1] is listed as “could not demethylate”.
Turning to `CNc1ncnc2c1ncn2[C@@H]1O[C@H](COP(=O)(O)O)[C@@H](O)[C@H]1O` [6me-AMP], the “formaldehyde release / demethylation by ALKBH6” value in [1] is recorded as “did not observe any demethylation”. In addition, the “demethylation by ALKBH6 (HPLC)” value in [3] is “did not observe any demethylation”.
`C[n+]1cn([C@H]2C[C@H](O)[C@@H](COP(=O)(O)O)O2)c2nc(N)[nH]c(=O)c21` [7me-dGMP]: the “formaldehyde release / demethylation by ALKBH6” value in [1] is listed as “Formaldehyde release was observed”. Also, in series [1] (setting [14]), the Km is 1.03 µM and the kcat came to 0.18 s⁻¹. In addition, the “demethylation by ALKBH6 (HPLC)” value in series [3] is given as “efficiently demethylate”.
Turning to `Cn1cnc2c(ncn2[C@H]2C[C@H](O)[C@@H](COP(=O)(O)O)O2)c1=N` [1me-dAMP], in series [1], the “formaldehyde release / demethylation by ALKBH6” value was “Formaldehyde release was observed”. For the same molecule, the “demethylation by ALKBH6 (HPLC)” value in series [3] was “efficiently demethylate”. Also, in series [13], the Km is 2 µM and the kcat was 0.07 s⁻¹.
